Test system: Lepidium sativum
Experiment: Inhibition of Lepidium sativum cress root growth at 5X10'-5 mol/L after 40 hrs
Type: functional

Row | SMILES | inhibition at 50 µM [%]
1 | CC/C=C\CC1C(=O)C=CC1CCCCCCCC(=O)O (cis isomer) | 50
2 | CC/C=C\C[C@H]1C(=O)C=C[C@H]1CCCCCCCC(=O)OC[C@H](CO[C@@H]1O[C@H](CO)[C@H](O)[C@H](O)[C@H]1O)OC(=O)CCCCC[C@@H]1C=CC(=O)[C@@H]1C/C=C\CC [ARABIDOPSIDE A] | 30
3 | CC/C=C\C[C@H]1C(=O)C=C[C@H]1CCCCCCCC(=O)OC[C@H](CO[C@@H]1O[C@H](CO)[C@H](O)[C@H](O)[C@H]1O)OC(=O)CCCCCCC[C@@H]1C=CC(=O)[C@@H]1C/C=C\CC [ARABIDOPSIDE B] | 30
4 | CC/C=C\CC1C(=O)C=CC1CCCCCCCC(=O)OCC(CO[C@@H]1O[C@H](CO[C@H]2O[C@H](CO)[C@H](O)[C@H](O)[C@H]2O)[C@H](O)[C@H](O)[C@H]1O)OC(=O)CCCCCCCC1C=CC(=O)C1C/C=C\CC (stereo not given in full) [Arabidopside D] | 30
5 | CC/C=C\C[C@H]1C(=O)CC[C@@H]1CC(=O)O [JASMONIC ACID] | 50
